We go through five molecules from patent US20240245805A1 (Orna Therapeutics, Inc., priority 2020, published 2024).

As a reminder, the pKa is the pH at which an ionisable group is half protonated.

For data set [1] the following is noted: Table 1, lipids of Formula I; cited from earlier work.
The subject of data set [2] is 1C1C7 cells. Nature of the data set: 5′ UTR variants, GLuc in 1C1C7 cells. Type of data set: cell-based. As to conditions: CK IRES with 5′ UTR variants. From the text:
This example describes modifications of circular RNAs by inserting 5′ UTR variants. […] 1C1C7 cells were transfected with the circular RNAs.

Data set [3] relates to 1C1C7 cells. Nature of the data set: GLuc luminescence and functional stability by IRES, 1C1C7 cells.

As for `CCCCCCCCC(CCCCCC)CCCOC(=O)CCCCCN(CCCCCC(=O)OCC(CCCCCC)CCCCCCCC)CCN(C)CC` (centres unmarked) [Lipid I-33], the pKa in data set [1] is on record as 6.27.
Turning to `CCCCCCCCCCCCC(CCCCCCCCCC)C(=O)OCCCCCCN(CCCCCCOC(=O)C(CCCCCCCCCC)CCCCCCCCCCCC)CCN(C)C` (centres unmarked) [Lipid I-39], the pKa in data set [1] is recorded as 6.82.
“UTR2: 5′ UTR variant: canonical Kozak sequence with "a 36-nucleotide unstructured/low GC spacer sequence" added (UTR2) (DNA AATAAGAGAGAAAAGAAGAGTAAGAAGAAATATAAGAGCCACC; 5' UTR segment within a circular RNA construct, further chemistry not given here)”: the translation result in data set [2] was “more effective”.
As for “UTR3: 5′ UTR variant: "a higher-GC/structured spacer with a kozak sequence" (UTR3) (DNA CGAACTAGTATTCTTCTGGTCCCCACAGACTCAGAGAGAACCCGCCACC; 5' UTR segment within a circular RNA construct, further chemistry not given here)”, the translation entry in data set [2] is “did not show the same benefit”.

B1: Salivirus A SZ-1 (nucleic acid)
DNA: TCTGTCCTCACCCCATCTTCCCTTCTTTCCTGCACCGTTACGCTTACTCGCATGTGCATTGAGTGGTGCACGTGCTTGAACAAACAGCTACACTCACATGGGGGCGGGTTTTCCCGCCCTGCGGCCTCTCGCGAGGCCCACCCCTCCCCTTCCTCCCATAACTACAGTGCTTTGGTAGGTAAGCATCCTGATCCCCCGCGGAAGCTGCTCACGTGGCAACTGTGGGGACCCAGACAGGTTATCAAAGGCACCCGGTCTTTCCGCCTTCAGGAGTATCCCTGCTAGTGAATTCTAGTAGGGCTCTGCTTGGTGCCAACCTCCCCCAAATGCGCGCTGCGGGAGTGCTCTTCCCCAACTCACCCTAGTATCCTCTCATGTGTGTGCTTGGTCAGCATATCTGAGACGATGTTCCGCTGTCCCAGACCAGTCCAGTAATGGACGGGCCAGTGTGCGTAGTCGTCTTCCGGCTTGTCCGGCGCATGTTTGGTGAACCGGTGGGGTAAGGTTGGTGTGCCCAACGCCCGTACTTTGGTGATACCTCAAGACCACCCAGGAATGCCAGGGAGGTACCCCGCTTCACAGCGGGATCTGACCCTGGGCTAATTGTCTACGGTGGTTCTTCTTGCTTCCACTTCTTTCTACTGTTCATG
modifications: source: /note="Description of Unknown: Salivirus A sequence"
Consider B1, for which the “luminescence at 24 hours” value in data set [3] is “produced high luminescence”.
